Experimental findings from patent US20260274833A1 (NiKang Therapeutics, Inc., priority 2022, published 2026) are described below.

Molecules are shown by their SMILES.

The assay deals with T1, CDK2 (Homo sapiens, UniProt P24941).
T1 construct: endogenous in cells; host or cells: OVCAR3 cells
Kind of assay: Phospho-RB measurement in OVCAR3 cells (HTRF phospho-RB cellular kit). It counts as cell-based. The conditions noted are these: inhibition of RB phosphorylation at S807/811 (HTRF, TR-FRET ratio 665/620), 24 h compound treatment, 0.3 to 10,000 nM. In outline: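 IC50 came from a four-parameter logistic fit of the DMSO-normalized TR-FRET ratio (665/620 nm). That ratio reflects RB phosphorylation at S807/811, read with an HTRF antibody pair 4 h after adding lysate at room temperature.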
For orientation: Time-resolved FRET reads energy transfer from a long-lived donor to a nearby acceptor.
Turning to `CS(=O)(=O)[C@H]1CC[C@H](Nc2nccc(-c3sc(N4C5CCC4CN(CC(F)F)C5)nc3-c3cccc(NS(=O)(=O)N4CCc5ccc(C(F)(F)F)cc54)c3F)n2)CC1` [Example 299, N-(3-(2-(3-(2,2-difluoroethyl)-3,8-diazabicyclo[3.2.1]octan-8-yl)-5-(2-(((1r,4r)-4-(methylsulfonyl)cyclohexyl)-amino)pyrimidin-4-yl)thiazol-4-yl)-2-fluorophenyl)-6-(trifluoromethyl)-indoline-1-sulfonamide], the IC50 (in general, the concentration that gives 50% inhibition) came out at 449 nM.

For `CCN(C)S(=O)(=O)Nc1cccc(-c2nc(C(C)(C)C)sc2-c2ccnc(NC3CC4(C3)CS(=O)(=O)C4)n2)c1F` [Example 194, N-(3-(2-(tert-butyl)-5-(2-((2,2-dioxido-2-thiaspiro[3.3]heptan-6-yl)amino)-pyrimidin-4-yl)thiazol-4-yl)-2-fluoro-phenyl)-N-methyl-N-ethylamine-sulfonamide], the IC50 is 1850 nM.

Consider `COc1cccc2c1CN(S(=O)(=O)Nc1cccc(-c3nc(C45CC(C4)C5)sc3-c3ccnc(NC4CC5(C4)CS(=O)(=O)C5)n3)c1F)C2` [Example 23, N-(3-(2-(bicyclo [1.1.1]pentan-1-yl)-5-(2-((2,2-dioxido-2-thiaspiro[3.3]heptan-6-yl)amino)-pyrimidin-4-yl)thiazol-4-yl)-2-fluorophenyl)-4-methoxyisoindoline-2-sulfonamide], for which the IC50 was 136 nM.

For the compound `CC(C)(C)c1nc(-c2cccc(NS(=O)(=O)N3CCC4(CCC4)C3)c2F)c(-c2ccnc(NC3CCN(S(C)(=O)=O)CC3)n2)s1` [Example 174, N-(3-(2-(tert-butyl)-5-(2-((1-(methylsulfonyl)-piperidin-4-yl)amino)-pyrimidin-4-yl)thiazol-4-yl)-2-fluoro-phenyl)-6-azaspiro [3.4]octane-6-sulfonamide], the concentration for half-maximal inhibition (IC50) worked out at 853 nM.

Turning to `CC(C)(C)OC(=O)N1CCN(c2ccc(Nc3nccc(-c4sc(C(C)(C)C)nc4-c4cccc(NS(=O)(=O)N5CCc6ccc(C#N)cc65)c4F)n3)cc2)CC1` [Example 235, tert-butyl 4-(4-((4-(2-(tert-butyl)-4-(3-((6-cyanoindoline)-1-sulfonamido)-2-fluorophenyl)thiazol-5-yl)pyrimidin-2-yl)amino)phenyl) piperazine-1-carboxylate], the 50% inhibitory concentration (IC50) stood at 3390 nM.

In the case of `CC(C)(C)c1nc(-c2cccc(NS(=O)(=O)N3Cc4ccccc4C3)c2F)c(-c2ccnc(NC3CCN(S(C)(=O)=O)CC3)n2)s1` [Example 69], the IC50 came to 88.9 nM.

With `Cn1ncc2c1CN(S(=O)(=O)Nc1cccc(-c3nc(C(C)(C)C)sc3-c3ccnc(Nc4ccc(N5CCNCC5)cc4)n3)c1F)C2` [Example 251], the 50% inhibitory concentration (IC50) is 1530 nM.

Regarding `N#Cc1ccc2c(c1)N(S(=O)(=O)Nc1cccc(-c3nc(C45CC(C4)C5)sc3-c3ccnc(NC4CC5(C4)CS(=O)(=O)C5)n3)c1F)CC2` [Example 9, N-(3-(2-(bicyclo [1.1.1]pentan-1-yl)-5-(2-((2,2-dioxido-2-thiaspiro[3.3]heptan-6-yl)amino)-pyrimidin-4-yl)thiazol-4-yl)-2-fluorophenyl)-6-cyanoindoline-1-sulfonamide], the IC50 came to 104 nM.

With `C#Cc1ccc2c(c1)N(S(=O)(=O)Nc1cccc(-c3nc(C45CC(C4)C5)sc3-c3ccnc(NC4CC5(C4)CS(=O)(=O)C5)n3)c1F)CC2` [Example 26, N-(3-(2-(bicyclo [1.1.1]pentan-1-yl)-5-(2-((2,2-dioxido-2-thiaspiro[3.3]heptan-6-yl)amino)-pyrimidin-4-yl)thiazol-4-yl)-2-fluorophenyl)-6-ethynylindoline-1-sulfonamide], the IC50 amounted to 160 nM.

Take `CCOc1cccc2c1CN(S(=O)(=O)Nc1cccc(-c3nc(C(C)(C)C)sc3-c3ccnc(NC4CC5(C4)CS(=O)(=O)C5)n3)c1F)C2` [Example 204, N-(3-(2-(tert-butyl)-5-(2-((2,2-dioxido-2-thiaspiro[3.3]heptan-6-yl)amino)-pyrimidin-4-yl)thiazol-4-yl)-2-fluoro-phenyl)-4-ethoxyisoindoline-2-sulfonamide]: the half-inhibitory concentration (IC50) is 69.2 nM.

Regarding `CC(C)(C)c1nc(-c2cccc(NS(=O)(=O)N3Cc4cccc(Cc5ccccc5)c4C3)c2F)c(-c2ccnc(NC3CC4(C3)CS(=O)(=O)C4)n2)s1` [Example 232, 4-benzyl-N-(3-(2-(tert-butyl)-5-(2-((2,2-dioxido-2-thiaspiro[3.3]heptan-6-yl)amino)-pyrimidin-4-yl)thiazol-4-yl)-2-fluorophenyl)-isoindoline-2-sulfonamide], the IC50 was determined as 939 nM.

Take `CN(C)S(=O)(=O)Nc1cccc(-c2nc(C(C)(C)C)sc2-c2ccnc(NC3CCN(S(=O)(=O)N4CCNCC4)CC3)n2)c1F` [Example 96, N-(3-(2-(tert-butyl)-5-(2-((1-(piperazin-1-ylsulfonyl)piperidin-4-yl)amino)-pyrimidin-4-yl)thiazol-4-yl)-2-fluorophenyl) dimethylamine-sulfonamide]: the half-maximal inhibitory concentration (IC50) is 454 nM.

With `CC1(C)CN(S(=O)(=O)Nc2cccc(-c3nc(C45CC(C(F)(F)F)(C4)C5)sc3-c3ccnc(N[C@H]4CC[C@H](S(C)(=O)=O)CC4)n3)c2F)c2ccccc21` [Example 291, N-(2-fluoro-3-(5-(2-(((1r,4r)-4-(methylsulfonyl)cyclohexyl)amino)pyrimidin-4-yl)-2-(3-(trifluoromethyl)-bicyclo[1.1.1]pentan-1-yl)thiazol-4-yl)phenyl)-3,3-dimethylindoline-1-sulfonamide], the half-inhibitory concentration (IC50) is 2750 nM.

For `O=S1(=O)CC2(CC(Nc3nccc(-c4sc(C56CC(C5)C6)nc4-c4cccc(NS(=O)(=O)N5CCc6c5cccc6C(F)(F)F)c4F)n3)C2)C1` [Example 42, N-(3-(2-(bicyclo [1.1.1]pentan-1-yl)-5-(2-((2,2-dioxido-2-thiaspiro[3.3]heptan-6-yl)amino)-pyrimidin-4-yl)thiazol-4-yl)-2-fluorophenyl)-4-(trifluoromethyl)-indoline-1-sulfonamide], the IC50 is 278 nM.

Take `O=S1(=O)CC2(CC(Nc3nccc(-c4sc(N5C6CCC5CN(C5CC(F)(F)C5)C6)nc4-c4cccc(NS(=O)(=O)N5Cc6cccc(C(F)F)c6C5)c4F)n3)C2)C1` [Example 52, N-(3-(2-(3-(3,3-difluorocyclobutyl)-3,8-diazabicyclo [3.2.1]octan-8-yl)-5-(2-((2,2-dioxido-2-thiaspiro[3.3]heptan-6-yl)amino)-pyrimidin-4-yl)thiazol-4-yl)-2-fluorophenyl)-4-(difluoromethyl)-isoindoline-2-sulfonamide]: the IC50 turned out to be 160 nM.

As for `CC(C)(C)c1nc(-c2cccc(NS(=O)(=O)N3CCCc4ccccc4C3)c2F)c(-c2ccnc(NC3CCN(S(C)(=O)=O)CC3)n2)s1` [Example 80, N-(3-(2-(tert-butyl)-5-(2-((1-(methylsulfonyl)-piperidin-4-yl)amino)-pyrimidin-4-yl)thiazol-4-yl)-2-fluorophenyl)-1,3,4,5-tetrahydro-2H-benzo[c]azepine-2-sulfonamide], the concentration for half-maximal inhibition (IC50) worked out at 172 nM.

Take `CNc1cccc2c1N(S(=O)(=O)Nc1cccc(-c3nc(C(C)(C)C)sc3-c3ccnc(NC4CCN(S(C)(=O)=O)CC4)n3)c1F)CC2` [Example 258, N-(3-(2-(tert-butyl)-5-(2-((1-(methylsulfonyl)-piperidin-4-yl)amino)-pyrimidin-4-yl)thiazol-4-yl)-2-fluoro-phenyl)-7-(methylamino) indoline-1-sulfonamide]: the half-inhibitory concentration (IC50) was 435 nM.

For `O=S1(=O)CC2(CC(Nc3nccc(-c4sc(C5(C(F)(F)F)CC5)nc4-c4cccc(NS(=O)(=O)N5CCc6ccc(Cl)cc65)c4F)n3)C2)C1` [Example 287, 6-chloro-N-(3-(5-(2-((2,2-dioxido-2-thiaspiro[3.3]heptan-6-yl)amino)-pyrimidin-4-yl)-2-(1-(trifluoromethyl)-cyclopropyl)thiazol-4-yl)-2-fluoro-phenyl)indoline-1-sulfonamide], the IC50 was 347 nM.

Consider `CC(C)(C)c1nc(-c2cccc(NS(=O)(=O)N3Cc4cccc(Oc5cccc(F)c5)c4C3)c2F)c(-c2ccnc(NC3CC4(C3)CS(=O)(=O)C4)n2)s1` [Example 214, N-(3-(2-(tert-butyl)-5-(2-((2,2-dioxido-2-thiaspiro[3.3]heptan-6-yl)amino)-pyrimidin-4-yl)thiazol-4-yl)-2-fluorophenyl)-4-(3-fluorophenoxy)-isoindoline-2-sulfonamide], for which the IC50 is 535 nM.

Consider `CC(C)(C)c1nc(-c2cccc(NS(=O)(=O)N3CCc4ccc(C#N)cc43)c2F)c(-c2ccnc(NC3CC4(C3)CS(=O)(=O)C4)n2)s1` [Example 170, N-(3-(2-(tert-butyl)-5-(2-((2,2-dioxido-2-thiaspiro[3.3]heptan-6-yl)amino)-pyrimidin-4-yl)thiazol-4-yl)-2-fluoro-phenyl)-6-cyano-indoline-1-sulfonamide], for which the 50% inhibitory concentration (IC50) turned out to be 62 nM.

On to `CC(C)(C)c1nc(-c2cccc(NS(=O)(=O)N3CCNc4ccccc43)c2F)c(-c2ccnc(NC3CCN(S(C)(=O)=O)CC3)n2)s1` [Example 106, N-(3-(2-(tert-butyl)-5-(2-((1-(methylsulfonyl)piperidin-4-yl)amino)-pyrimidin-4-yl)thiazol-4-yl)-2-fluorophenyl)-3,4-dihydroquinoxaline-1(2H)-sulfonamide], for which the IC50 came to 263 nM.

Regarding `CN(C)C(=O)c1ccc2c(c1)N(S(=O)(=O)Nc1cccc(-c3nc(C(C)(C)C)sc3-c3ccnc(NC4CCN(S(C)(=O)=O)CC4)n3)c1F)CC2` [Example 152, 1-(N-(3-(2-(tert-butyl)-5-(2-((1-(methyl-sulfonyl)piperidin-4-yl)amino)pyrimidin-4-yl)thiazol-4-yl)-2-fluorophenyl)-sulfamoyl)-N,N-dimethylindoline-6-carboxamide], the half-inhibitory concentration (IC50) turned out to be 397 nM.

Take `O=S1(=O)CC2(CC(Nc3nccc(-c4sc(C56CC(C5)C6)nc4-c4cccc(NS(=O)(=O)N5CCc6ccccc6C5)c4F)n3)C2)C1` [Example 46, N-(3-(2-(bicyclo [1.1.1]pentan-1-yl)-5-(2-((2,2-dioxido-2-thiaspiro[3.3]heptan-6-yl)amino)-pyrimidin-4-yl)thiazol-4-yl)-2-fluorophenyl)-3,4-dihydroisoquinoline-2(1H)-sulfonamide]: the 50% inhibitory concentration (IC50) worked out at 476 nM.
